In publication PMC5218480 (PLoS ONE, 2017):
Several values for one entry are separate records, joined by “and”; a condition that tells them apart may be missing. Equal values may be shown once.

Key:
[1] = target: T1, HDAC1 (Homo sapiens, UniProt Q13547); experiment: HDAC enzyme assay, in vitro biochemical
T1 construct: purchased BPS Biosciences
Description: (§1) In vitro biochemical assays were performed as described previously. Specifically, compounds were dissolved and diluted in assay buffer (50 mM HEPES, pH 7.4, 100 mM KCl, 0.001% Tween-20, 0.05% BSA, and 20 μM Tris (2-carboxyethyl) phosphine) to 6-fold the final concentration. […] The amount of substrate (acetyl-lysine tripeptide) used for each enzyme was equal to the Michaelis constant (Km), as determined by a titration curve. Substrate was diluted in assay buffer to 6-fold of the final concentration with 0.3 μM sequencing grade trypsin (Sigma-Aldrich). The substrate/trypsin mix was added to the enzyme/compound mix and the plate was shaken for 5 seconds and then placed into a SpectraMax M5 microtiter (Molecular Devices) plate reader. The enzymatic reaction was monitored over 30 minutes for release of […] after deacetylation of the lysine side chain in the peptide substrate, and the linear rate of the reaction was calculated.

[2] = target: T2, HDAC2 (Homo sapiens, UniProt Q92769); experiment: HDAC enzyme assay, in vitro biochemical
T2 construct: purchased BPS Biosciences
Description: as §1

[3] = target: T3, HDAC7 (Homo sapiens, UniProt Q8WUI4); experiment: HDAC enzyme assay, in vitro biochemical; conditions: maximum concentration tested of 20 μM
T3 construct: purchased BPS Biosciences
T3 sequence (Q8WUI4 1-952): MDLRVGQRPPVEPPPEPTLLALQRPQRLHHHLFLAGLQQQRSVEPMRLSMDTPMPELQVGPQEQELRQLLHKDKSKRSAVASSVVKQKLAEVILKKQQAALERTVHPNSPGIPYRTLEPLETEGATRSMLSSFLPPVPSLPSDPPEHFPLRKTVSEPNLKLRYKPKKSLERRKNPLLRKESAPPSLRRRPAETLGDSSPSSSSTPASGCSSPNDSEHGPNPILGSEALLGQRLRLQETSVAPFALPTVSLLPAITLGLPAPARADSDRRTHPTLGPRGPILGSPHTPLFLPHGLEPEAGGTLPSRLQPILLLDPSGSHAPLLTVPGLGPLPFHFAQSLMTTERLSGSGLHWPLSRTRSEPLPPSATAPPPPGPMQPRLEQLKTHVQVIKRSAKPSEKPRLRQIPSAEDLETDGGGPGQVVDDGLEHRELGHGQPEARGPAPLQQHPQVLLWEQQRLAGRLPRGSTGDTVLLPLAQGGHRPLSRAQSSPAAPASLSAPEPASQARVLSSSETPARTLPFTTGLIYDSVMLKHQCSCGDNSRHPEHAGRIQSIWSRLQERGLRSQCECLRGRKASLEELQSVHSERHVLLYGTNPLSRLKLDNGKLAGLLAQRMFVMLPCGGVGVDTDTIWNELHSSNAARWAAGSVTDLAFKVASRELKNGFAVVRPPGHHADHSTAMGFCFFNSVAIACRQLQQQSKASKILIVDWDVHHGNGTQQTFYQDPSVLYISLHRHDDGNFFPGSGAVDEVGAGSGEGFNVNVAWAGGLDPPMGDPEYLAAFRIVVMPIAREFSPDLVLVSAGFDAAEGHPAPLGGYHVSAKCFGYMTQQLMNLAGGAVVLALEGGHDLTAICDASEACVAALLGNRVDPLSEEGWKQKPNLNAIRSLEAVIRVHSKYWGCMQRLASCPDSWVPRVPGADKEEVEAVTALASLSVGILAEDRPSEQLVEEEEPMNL
Description: as §1
(§2) biochemical assay for HDAC4, HDAC5, HDAC6, HDAC7, HDAC8, HDAC9 inhibition by ACY-1035.
(§3) (1 picture or pasted object on this page, not shown here)

[4] = target: T4, HDAC8 (Homo sapiens, UniProt Q9BY41); experiment: HDAC enzyme assay, in vitro biochemical; conditions: maximum concentration tested of 20 μM
T4 construct: purchased BPS Biosciences
T4 sequence (Q9BY41 1-377): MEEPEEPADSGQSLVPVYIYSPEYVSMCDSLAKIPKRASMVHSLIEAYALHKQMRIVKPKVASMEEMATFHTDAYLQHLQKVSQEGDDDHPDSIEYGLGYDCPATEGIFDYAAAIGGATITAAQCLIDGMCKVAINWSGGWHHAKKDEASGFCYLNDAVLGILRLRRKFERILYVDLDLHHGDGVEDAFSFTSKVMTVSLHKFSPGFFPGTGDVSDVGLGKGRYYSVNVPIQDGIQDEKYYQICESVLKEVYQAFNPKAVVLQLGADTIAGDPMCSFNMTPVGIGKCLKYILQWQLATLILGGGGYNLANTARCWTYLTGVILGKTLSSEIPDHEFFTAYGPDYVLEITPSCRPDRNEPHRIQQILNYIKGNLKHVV
Description: as §1, §2, §3

[5] = test system: MV-4-11, Kasumi-1 and HL-60 cell lines; experiment: Histone acetylation by immunoblotting; assay type: cell-based, human; conditions: 24 hours, increasing doses
Text: The EpiQuick Total Histone Extraction kit (Epigentek) was used to isolate histones. Histone lysates were size separated on Bolt 10% Bis-Tris gradient gels (Life Technologies), transferred to polyvinylidene difluoride membranes, blocked in 5% BSA, and detected using standard western blotting techniques.

[6] = test system: MV-4-11 and HL-60 cells; experiment: Flow cytometry, cell cycle (EdU, S phase); assay type: cell-based, human; conditions: single agent, 72 hours
Description: (§4) All compounds and/or solvent DMSO were added concurrently at the indicated doses. Flow cytometry was performed to measure surface level of CD11b, cell cycle distribution, and induction of apoptosis. CD11b and apoptosis were analyzed on a FC500 flow cytometer ([…]) and cell cycle profiled on an Attune NxT (Life Technologies).
EdU labeled cells were then mixed with FxCycle Far Red Stain (Life Technologies) and 100 μg RNase A cocktail (Life technologies) for 30 minutes before flow cytometry analysis. Edu positive populations representing S phase cells were quantified.

[7] = test system: MV-4-11 and HL-60 cells; experiment: Flow cytometry, apoptosis (Annexin V); assay type: cell-based, human; conditions: single agent, 96 hours
Description: as §4
Annexin V-positive populations were quantified.

[8] = test system: Kasumi-1 cells; experiment: Cell viability assay (CellTiter-Glo); conditions: read-out: IC50 cell viability Kasumi-1; 72 hours
Description: (§5) MV-4-11, Kasumi-1, and HL-60 AML cell lines were all obtained from ATCC. MOLM-13 and NB-4 cell lines were obtained from DSMZ. […] The identity of each cell line was validated and documented by the suppliers. All experiments were performed with cells maintained at low passage numbers.
(§6) Compounds and/or solvent dimethyl sulfoxide (DMSO) were added at the same time using an HP D300 digital dispenser (Hewlett Packard) in triplicate or quadruplicate and incubated for 72 hours at 37°C. Viability was measured by adding 25 μL CellTiter-Glo (Promega), incubating for 10 minutes, and measuring luminescence on a SpectraMax (Molecular Devices). […] CI < 1 indicates synergism, CI = 1 indicates additivity, and CI > 1 indicates antagonism.

[9] = test system: NB-4 cells; experiment: Cell viability assay (CellTiter-Glo); conditions: read-out: IC50 cell viability NB-4; 72 hours
Description: as §5
Compounds and/or solvent dimethyl sulfoxide (DMSO) were added at the same time using an HP D300 digital dispenser (Hewlett Packard) in triplicate or quadruplicate and incubated for 72 hours at 37°C. Viability was measured by adding 25 μL CellTiter-Glo (Promega), incubating for 10 minutes, and measuring luminescence on a SpectraMax (Molecular Devices).

[10] = test system: MV-4-11 cells; experiment: Cell viability assay (CellTiter-Glo), single agent and combination; conditions: read-out: IC50 cell viability MV-4-11; 72 hours
Description: as §5, §6

[11] = test system: MOLM-13 xenograft; experiment: In vivo model of AML: MOLM-13 xenograft, time to endpoint (TTE) and survival; conditions: Azacitidine 5.5 mg/kg, iv, bi-weekly; for Tumor volume: individual animal;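 as to all read-outs here: female Crl:NU(NCr)-Foxn1^nu mice bearing subcutaneous flank MOLM-13 tumors, caliper-measured twice per week, volume as width^2 × length/2, endpoint reached at 2000 mm^3 tumor volume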

T2 sequence (Q92769 whole entry): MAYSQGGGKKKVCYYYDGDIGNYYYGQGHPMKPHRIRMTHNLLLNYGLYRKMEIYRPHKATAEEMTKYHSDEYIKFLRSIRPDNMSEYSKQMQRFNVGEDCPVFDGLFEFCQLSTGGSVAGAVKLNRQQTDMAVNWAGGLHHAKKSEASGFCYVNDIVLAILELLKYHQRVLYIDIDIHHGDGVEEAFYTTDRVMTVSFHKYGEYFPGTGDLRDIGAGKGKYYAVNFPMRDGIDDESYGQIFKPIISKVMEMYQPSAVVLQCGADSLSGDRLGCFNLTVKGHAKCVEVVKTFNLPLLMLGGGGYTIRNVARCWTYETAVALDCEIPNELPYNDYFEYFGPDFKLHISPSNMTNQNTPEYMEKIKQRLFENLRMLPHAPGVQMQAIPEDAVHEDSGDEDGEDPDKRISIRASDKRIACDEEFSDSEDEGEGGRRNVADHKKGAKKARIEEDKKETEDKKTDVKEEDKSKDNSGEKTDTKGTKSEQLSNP
T1 sequence (Q13547 whole entry): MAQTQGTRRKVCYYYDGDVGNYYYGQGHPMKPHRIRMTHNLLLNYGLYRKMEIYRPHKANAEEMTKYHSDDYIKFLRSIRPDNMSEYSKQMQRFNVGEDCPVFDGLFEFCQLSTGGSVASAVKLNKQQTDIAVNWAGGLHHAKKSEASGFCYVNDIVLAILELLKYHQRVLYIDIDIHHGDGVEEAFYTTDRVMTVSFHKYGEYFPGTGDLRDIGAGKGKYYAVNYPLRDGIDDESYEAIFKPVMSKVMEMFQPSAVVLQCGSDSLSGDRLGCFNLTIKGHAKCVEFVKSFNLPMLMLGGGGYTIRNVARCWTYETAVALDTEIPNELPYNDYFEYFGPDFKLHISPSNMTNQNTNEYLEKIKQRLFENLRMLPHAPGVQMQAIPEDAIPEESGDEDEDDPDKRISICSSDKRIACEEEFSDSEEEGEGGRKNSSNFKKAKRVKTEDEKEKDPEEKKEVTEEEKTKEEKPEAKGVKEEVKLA

| Compound | selectivity for HDAC1 over HDAC3 [1] | IC50 ([1]; pre-incubated 24 hours at 4°C, n = 3, read-out: IC50 against HDAC1) [µM] | selectivity for HDAC2 over HDAC3 [2] | IC50 ([2]; pre-incubated 24 hours at 4°C, n = 3, read-out: IC50 against HDAC2) [µM] | inhibition of HDAC7 [3] | inhibition of HDAC8 [4] | acetylation on histone H2B lysine 5 (H2BK5ac) and histone H3 lysine 56 (H3K56ac) [5] | cells in S phase [6] | apoptosis, staining for annexin V [7] | IC50 [8] [µM] | IC50 [9] [µM] | IC50 [10] [µM] | TTE ([11]; TTE for individual animal) | Tumor volume ([11]; day of study 1) | Tumor volume ([11]; day of study 5) | Tumor volume ([11]; day of study 8) | Tumor volume ([11]; day of study 12) | Tumor volume ([11]; day of study 15) | Tumor volume ([11]; day of study 19) |
| --- | --- | --- | --- | --- | --- | --- | --- | --- | --- | --- | --- | --- | --- | --- | --- | --- | --- | --- | --- |
| Nc1ccc(-c2cccs2)cc1NC(=O)c1ccc2c(c1)cc(C1CC1)n2CCN1CCOCC1 [ACY-1035] | more than 150 fold | 0.0094 | approximately 50 fold | 0.023 | did not inhibit | did not inhibit | dose-dependent accumulation | dose-dependent reduction of cells in S phase | increased staining for annexin V | 2.6 | 2.8 | 1.4 |  |  |  |  |  |  |  |
| Nc1ncn([C@@H]2O[C@H](CO)[C@@H](O)[C@H]2O)c(=O)n1 [azacitidine] |  |  |  |  |  |  |  |  |  |  |  |  | 14.4 and 17 and 17.1 and 17.2 and 17.4 and 17.6 and 17.7 | 108 mm3 and 126 mm3 and 144 mm3 and 172 mm3 | 172 mm3 and 126 mm3 and 245 mm3 and 196 mm3 and 365 mm3 and 256 mm3 | 500 mm3 and 365 mm3 and 405 mm3 and 700 mm3 and 288 mm3 and 650 mm3 and 726 mm3 and 550 mm3 | 1470 mm3 and 936 mm3 and 1183 mm3 and 1862 mm3 and 787 mm3 and 1080 mm3 and 1008 mm3 and 1152 mm3 and 1666 mm3 | 1913 mm3 and 1568 mm3 and 2025 mm3 and 2816 mm3 and 1268 mm3 and 1666 mm3 and 1764 mm3 and 3240 mm3 | 2025 mm3 and 2432 mm3 and 2176 mm3 and 2138 mm3 and 2250 mm3 |
